# Measured values taken from patent publication US20200069648A1, “HALOALLYLAMINE PYRAZOLE DERIVATIVE INHIBITORS OF LYSYL OXIDASES AND USES THEREOF” (Pharmaxis Ltd., priority 2017, published 2020).
# Structures can show the parent of a compound that is named as a salt.
# Biological target: T1, human recombinant SSAO/VAP-1 (Homo sapiens, UniProt Q16853)
# T1 construct: a cloned cDNA template corresponding to residues 34-763 of human SSAO/VAP-1; TEV cleavage site (N); made in house
# T1 sequence (Q16853 34-763): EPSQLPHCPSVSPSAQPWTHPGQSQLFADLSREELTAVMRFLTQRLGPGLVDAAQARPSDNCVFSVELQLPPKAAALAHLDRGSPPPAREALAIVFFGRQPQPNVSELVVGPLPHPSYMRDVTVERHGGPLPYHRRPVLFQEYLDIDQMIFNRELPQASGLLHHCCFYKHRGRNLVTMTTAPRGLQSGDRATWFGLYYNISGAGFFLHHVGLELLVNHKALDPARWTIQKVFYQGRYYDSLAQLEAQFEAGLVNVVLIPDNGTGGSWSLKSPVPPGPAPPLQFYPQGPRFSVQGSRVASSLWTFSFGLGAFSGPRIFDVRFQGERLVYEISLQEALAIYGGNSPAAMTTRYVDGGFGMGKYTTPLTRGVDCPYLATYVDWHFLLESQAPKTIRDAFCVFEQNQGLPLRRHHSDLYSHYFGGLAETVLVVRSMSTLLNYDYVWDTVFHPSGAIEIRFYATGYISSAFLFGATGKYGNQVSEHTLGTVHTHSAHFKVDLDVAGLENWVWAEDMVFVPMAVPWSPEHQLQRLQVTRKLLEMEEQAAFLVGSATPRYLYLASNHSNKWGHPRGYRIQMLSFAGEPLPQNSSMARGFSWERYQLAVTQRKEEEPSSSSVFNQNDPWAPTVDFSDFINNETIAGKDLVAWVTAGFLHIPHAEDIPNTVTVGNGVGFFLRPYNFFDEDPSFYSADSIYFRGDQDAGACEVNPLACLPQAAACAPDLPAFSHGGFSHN
# Assay: Human recombinant SSAO/VAP-1 amine oxidase inhibition
# Assay type: biochemical
# Settings: 30 min preincubation at 37° C., 600 μM benzylamine
# Protocol: Method to Determine the Ability of Compounds of Formula I to Inhibit Human Recombinant SSAO/VAP-1
# Human recombinant SSAO/VAP-1 amine oxidase activity was determined using the coupled colorimetric method as described for monoamine oxidase, copper-containing amine oxidases and related enzymes (Holt A. and Palcic M., A peroxidase-coupled continuous absorbance plate-reader assay for flavin monoamine oxidases, copper-containing amine oxidases and related enzymes. Nat Protoc 2006; 1: 2498-2505). Briefly, a cloned cDNA template corresponding to residues 34-763 of human SSAO/VAP-1, and incorporating a mouse Ig kappa (κ) signal sequence, N-terminal flag epitope tag and tobacco etch virus (TEV) cleavage site, was assembled in a mammalian expression vector (pLO-CMV) by Geneart AG. This vector containing human SSAO/VAP-1 residues was transfected into CHO-K1 glycosylation mutant cell line, Lec 8. A clone stably expressing human SSAO/VAP-1 was isolated and cultured in large scale. Active human SSAO/VAP-I was purified and recovered using immunoaffinity chromatography. This was used as the source for SSAO/VAP-1 activity. A high-throughput colorimetric assay was developed using either 96 or 384 well format. Briefly, in a standard 96 well plate assay 50 μL of purified human SSAO/VAP-1 (0.25 μg/mL) in 0.1 M sodium phosphate buffer (pH 7.4) was added into each well. Test compounds were dissolved in DMSO and tested in a Concentration Response Curve (CRC) with 4-11 data points, typically in the micromolar or nanomolar range after incubation with human SSAO/VAP-1 for 30 min at 37° C. After 30 min incubation, 50 μL of the reaction mixture containing 600 μM benzylamine (Sigma Aldrich), 120 μM Amplex Red (Sigma Aldrich) and 1.5 U/mL horseradish peroxidase (Sigma Aldrich) prepared in 0.1 M sodium phosphate buffer (pH 7.4) were added to the corresponding well. The fluorescence unit (RFU) was read every 2.5 min for 30 min at 37° C. excitation 565 nm and emission 590 (Optima; BMG labtech). The slope of the kinetics for each well was calculated using MARS data analysis software (BMG labtech) and this value was used to deduce the IC50 value (Dotmatics).
row,IC50 [µM],SMILES
1,> 10,"CNS(=O)(=O)c1ccc(Cn2nc(C)c(C/C(F)=C/CN)c2C)cc1Cl [Compound 22, (Z)-4-((4-(4-amino-2-fluorobut-2-en-1-yl)-3,5-dimethyl-1H-pyrazol-1-yl)methyl)-2-chloro-N-methylbenzenesulfonamide hydrochloride]"
2,> 30,"CNS(=O)(=O)c1ccc(Cn2nc(C)c(C/C(F)=C/CN)c2C)c(C(F)(F)F)c1 [Compound 23, (Z)-4-((4-(4-amino-2-fluorobut-2-en-1-yl)-3,5-dimethyl-1H-pyrazol-1-yl)methyl)-N-methyl-3-(trifluoromethyl)benzenesulfonamide hydrochloride]"
3,> 30,"Cc1nn(Cc2ccc(S(C)(=O)=O)c(Cl)c2)c(C)c1C/C(F)=C/CN [Compound 24, (Z)-4-(1-(3-chloro-4-(methylsulfonyl)benzyl)-3,5-dimethyl-1H-pyrazol-4-yl)-3-fluorobut-2-en-1-amine hydrochloride]"
4,> 30,"Cc1nn(Cc2cc(F)c(S(=O)(=O)N(C)C)cc2F)c(C)c1C/C(F)=C/CN [Compound 25, (Z)-4-((4-(4-amino-2-fluorobut-2-en-1-yl)-3,5-dimethyl-1H-pyrazol-1-yl)methyl)-2,5-difluoro-N,N-dimethylbenzenesulfonamide hydrochloride]"
5,< 10,"CNS(=O)(=O)c1cc(F)c(Cn2nc(C)c(C/C(F)=C/CN)c2C)cc1F [Compound 26, (Z)-4-((4-(4-amino-2-fluorobut-2-en-1-yl)-3,5-dimethyl-1H-pyrazol-1-yl)methyl)-2,5-difluoro-N-methylbenzenesulfonamide hydrochloride]"
6,> 30,"CCOC(=O)c1c(Cc2ccc(S(=O)(=O)N(C)C)cc2)c(C)nn1C/C(F)=C/CN [Compound 27, (Z)-ethyl 1-(4-amino-2-fluorobut-2-enyl)-4-(4-(N,N-dimethylsulfamoyl)benzyl)-3-methyl-1H-pyrazole-5-carboxylate hydrochloride]"
7,> 30,"CCOC(=O)c1nn(C/C(F)=C/CN)c(C)c1Cc1ccc(S(=O)(=O)N(C)C)cc1 [Compound 28, (Z)-ethyl 1-(4-amino-2-fluorobut-2-enyl)-4-(4-(N,N-dimethylsulfamoyl)benzyl)-5-methyl-1H-pyrazole-3-carboxylate hydrochloride]"
8,> 30,"Cc1nn(C/C(F)=C/CN)c(C(=O)N(C)C)c1Cc1ccc(S(=O)(=O)N(C)C)cc1 [Compound 29, (Z)-1-(4-amino-2-fluorobut-2-enyl)-4-(4-(N,N-dimethylsulfamoyl)benzyl)-N,N,3-trimethyl-1H-pyrazole-5-carboxamide hydrochloride]"
9,> 30,"Cc1nn(C/C(F)=C/CN)c(C(=O)O)c1Cc1ccc(S(=O)(=O)N(C)C)cc1 [Compound 30, (Z)-1-(4-amino-2-fluorobut-2-enyl)-4-(4-(N,N-dimethylsulfamoyl)benzyl)-3-methyl-1H-pyrazole-5-carboxylic acid hydrochloride]"
10,> 30,"Cc1c(Cc2ccc(S(=O)(=O)N(C)C)cc2)c(C(=O)O)nn1C/C(F)=C/CN [Compound 31, (Z)-1-(4-amino-2-fluorobut-2-enyl)-4-(4-(N,N-dimethylsulfamoyl)benzyl)-5-methyl-1H-pyrazole-3-carboxylic acid hydrochloride]"
11,> 30,"Cc1c(Cc2ccc(S(=O)(=O)N(C)C)cc2)c(C(=O)N(C)C)nn1C/C(F)=C/CN [Compound 32, (Z)-1-(4-amino-2-fluorobut-2-enyl)-4-(4-(N,N-dimethylsulfamoyl)benzyl)-N,N,5-trimethyl-1H-pyrazole-3-carboxamide hydrochloride]"
12,> 30,"CC(C)c1nn(C/C(F)=C/CN)c(C(C)O)c1Cc1ccc(S(=O)(=O)N(C)C)c(Cl)c1 (stereo not drawn) [Compound 59, (Z)-4-((1-(4-amino-2-fluorobut-2-en-1-yl)-5-(1-hydroxyethyl)-3-isopropyl-1H-pyrazol-4-yl)methyl)-2-chloro-N,N-dimethylbenzenesulfonamide hydrochloride]"
13,> 30,"CC(C)c1nn(C/C(F)=C/CN)c(C(C)C)c1Cc1ccc(S(=O)(=O)N(C)C)c(Cl)c1 [Compound 60, (Z)-4-((1-(4-amino-2-fluorobut-2-en-1-yl)-3,5-diisopropyl-1H-pyrazol-4-yl)methyl)-2-chloro-N,N-dimethylbenzenesulfonamide hydrochloride]"
14,> 30,"Cc1nn(C/C(F)=C/CN)c(C(=O)N(C)C)c1Cc1ccc(S(=O)(=O)N(C)C)c(Cl)c1 [Compound 61, (Z)-1-(4-amino-2-fluorobut-2-en-1-yl)-4-(3-chloro-4-(N,N-dimethylsulfamoyl)benzyl)-N,N,3-trimethyl-1H-pyrazole-5-carboxamide hydrochloride]"
15,> 30,"Cc1nn(C/C(F)=C/CN)c(C(=O)NC(C)(C)C)c1Cc1ccc(S(=O)(=O)N(C)C)c(Cl)c1 [Compound 62, (Z)-1-(4-amino-2-fluorobut-2-en-1-yl)-N-(tert-butyl)-4-(3-chloro-4-(N,N-dimethylsulfamoyl)benzyl)-3-methyl-1H-pyrazole-5-carboxamide hydrochloride]"
